In patent publication US11572590B2, “Methods for evaluating tumor cell spheroids using 3D microfluidic cell culture device” (Dana-Farber Cancer Institute, Inc., priority 2017, dated 2023) one finds inhibition data, which are given here for one molecule.

What all share (assay): SelectScreen Kinase Profiling, single point inhibition and IC50 for off-target kinases
Common to all, as to assay type: biochemical

Assay [1] addresses off-target kinases (Homo sapiens, UniProt P07333). To be noted: CSF1R (FMS), ATP Km app, ZLYTE.
The target in assay [2] is off-target kinases (Homo sapiens, UniProt P42684). To be noted: ABL2 (Arg), ZLYTE, ATP Km app.
Chain of off-target kinases (Homo sapiens, UniProt P42684) (P42684 whole entry): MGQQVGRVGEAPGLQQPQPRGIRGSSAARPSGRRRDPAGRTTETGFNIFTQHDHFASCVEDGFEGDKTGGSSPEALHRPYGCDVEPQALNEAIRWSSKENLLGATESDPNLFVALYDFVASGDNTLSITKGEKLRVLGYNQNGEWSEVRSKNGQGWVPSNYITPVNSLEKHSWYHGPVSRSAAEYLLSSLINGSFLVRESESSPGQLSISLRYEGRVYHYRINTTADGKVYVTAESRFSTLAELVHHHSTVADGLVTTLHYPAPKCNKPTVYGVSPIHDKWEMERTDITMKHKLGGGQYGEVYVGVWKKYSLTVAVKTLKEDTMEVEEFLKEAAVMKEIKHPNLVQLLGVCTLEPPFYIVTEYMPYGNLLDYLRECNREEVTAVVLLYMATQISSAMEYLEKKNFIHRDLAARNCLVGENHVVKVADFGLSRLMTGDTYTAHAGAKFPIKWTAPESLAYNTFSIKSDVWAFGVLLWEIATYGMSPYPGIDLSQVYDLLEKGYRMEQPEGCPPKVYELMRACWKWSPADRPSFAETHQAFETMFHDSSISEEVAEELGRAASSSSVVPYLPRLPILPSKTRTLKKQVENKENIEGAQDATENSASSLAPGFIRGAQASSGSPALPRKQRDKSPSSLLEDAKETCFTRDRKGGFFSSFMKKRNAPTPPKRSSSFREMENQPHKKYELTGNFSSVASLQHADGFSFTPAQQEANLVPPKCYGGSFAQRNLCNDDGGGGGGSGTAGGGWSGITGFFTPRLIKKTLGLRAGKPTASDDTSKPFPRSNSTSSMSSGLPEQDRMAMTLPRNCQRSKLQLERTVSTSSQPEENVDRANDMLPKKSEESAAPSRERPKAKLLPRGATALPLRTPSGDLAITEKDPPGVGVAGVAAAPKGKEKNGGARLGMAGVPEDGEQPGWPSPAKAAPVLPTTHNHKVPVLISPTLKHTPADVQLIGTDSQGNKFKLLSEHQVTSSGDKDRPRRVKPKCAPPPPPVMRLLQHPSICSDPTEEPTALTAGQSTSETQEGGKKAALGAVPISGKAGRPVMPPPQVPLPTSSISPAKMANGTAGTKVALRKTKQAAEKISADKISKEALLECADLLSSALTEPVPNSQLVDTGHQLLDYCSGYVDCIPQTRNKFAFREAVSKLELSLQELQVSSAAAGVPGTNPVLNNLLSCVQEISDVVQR
The target in assay [3] is T1, off-target kinases (Homo sapiens, UniProt P51813).
T1 sequence (P51813 1-675): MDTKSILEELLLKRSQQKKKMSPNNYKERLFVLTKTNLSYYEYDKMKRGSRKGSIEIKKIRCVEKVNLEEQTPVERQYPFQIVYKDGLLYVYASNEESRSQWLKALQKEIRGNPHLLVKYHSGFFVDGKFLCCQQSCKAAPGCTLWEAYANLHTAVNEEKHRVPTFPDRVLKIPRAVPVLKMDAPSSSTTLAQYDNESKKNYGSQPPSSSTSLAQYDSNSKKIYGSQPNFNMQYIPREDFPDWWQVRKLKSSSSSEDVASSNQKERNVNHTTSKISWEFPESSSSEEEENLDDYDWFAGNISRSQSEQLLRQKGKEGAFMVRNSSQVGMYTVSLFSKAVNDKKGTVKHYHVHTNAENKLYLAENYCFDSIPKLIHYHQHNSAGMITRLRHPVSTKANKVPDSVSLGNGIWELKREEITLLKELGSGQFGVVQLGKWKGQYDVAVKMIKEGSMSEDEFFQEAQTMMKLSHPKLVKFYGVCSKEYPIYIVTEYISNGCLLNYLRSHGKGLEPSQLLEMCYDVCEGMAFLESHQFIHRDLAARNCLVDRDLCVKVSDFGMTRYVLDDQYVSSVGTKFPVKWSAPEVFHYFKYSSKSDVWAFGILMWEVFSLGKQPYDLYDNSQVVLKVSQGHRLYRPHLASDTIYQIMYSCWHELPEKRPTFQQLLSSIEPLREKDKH
The following applies: BMX, ZLYTE, ATP Km app.

The target in assay [4] is off-target kinases (Homo sapiens, UniProt Q06187). To be noted: BTK, ZLYTE, ATP Km app.
Chain of off-target kinases (Homo sapiens, UniProt Q06187) (Q06187 whole entry): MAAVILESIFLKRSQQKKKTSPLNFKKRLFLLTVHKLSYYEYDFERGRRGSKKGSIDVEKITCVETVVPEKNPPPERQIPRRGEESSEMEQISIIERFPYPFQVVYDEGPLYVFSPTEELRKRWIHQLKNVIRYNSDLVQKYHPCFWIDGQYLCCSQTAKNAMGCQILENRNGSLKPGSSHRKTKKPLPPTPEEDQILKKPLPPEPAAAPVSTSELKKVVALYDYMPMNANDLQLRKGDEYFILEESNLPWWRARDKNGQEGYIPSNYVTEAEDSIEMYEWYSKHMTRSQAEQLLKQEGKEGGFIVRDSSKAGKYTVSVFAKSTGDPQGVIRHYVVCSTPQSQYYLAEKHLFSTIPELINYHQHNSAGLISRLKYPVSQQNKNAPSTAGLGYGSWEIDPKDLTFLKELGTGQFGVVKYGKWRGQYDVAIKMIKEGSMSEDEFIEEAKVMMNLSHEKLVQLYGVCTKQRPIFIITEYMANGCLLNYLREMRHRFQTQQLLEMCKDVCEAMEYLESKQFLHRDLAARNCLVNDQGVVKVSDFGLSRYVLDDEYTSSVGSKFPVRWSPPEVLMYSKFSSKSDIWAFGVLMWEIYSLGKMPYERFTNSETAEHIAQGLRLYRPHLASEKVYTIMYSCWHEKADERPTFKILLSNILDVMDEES
Assay [5] concerns the target off-target kinases (Homo sapiens, UniProt Q15759). To be noted: MAPK11 (p38 beta), ZLYTE, ATP Km app.
For assay [6], the target named is off-target kinases (Homo sapiens, UniProt Q5S007, R1441C). The following applies: LRRK2 R1441C, ATP Km app, Adapta.
Assay [7] concerns the target T2, off-target kinases (Homo sapiens, UniProt Q9NWZ3).
T2 sequence (Q9NWZ3 1-460): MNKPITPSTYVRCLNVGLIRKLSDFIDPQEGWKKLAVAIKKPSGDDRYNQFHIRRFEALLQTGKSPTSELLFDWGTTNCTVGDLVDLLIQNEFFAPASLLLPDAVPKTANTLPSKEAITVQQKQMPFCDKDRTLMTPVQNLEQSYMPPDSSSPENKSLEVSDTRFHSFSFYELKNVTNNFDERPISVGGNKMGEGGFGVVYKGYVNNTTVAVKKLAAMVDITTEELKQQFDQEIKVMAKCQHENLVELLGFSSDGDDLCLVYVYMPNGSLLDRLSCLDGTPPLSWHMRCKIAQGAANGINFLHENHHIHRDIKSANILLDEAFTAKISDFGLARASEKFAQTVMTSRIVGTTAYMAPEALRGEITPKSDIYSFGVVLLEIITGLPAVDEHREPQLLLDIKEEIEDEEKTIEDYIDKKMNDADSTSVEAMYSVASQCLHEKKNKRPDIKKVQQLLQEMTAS
To be noted: IRAK4, ZLYTE, ATP Km app.

The term inhibition denotes the share of the control response that was lost under treatment.

Structures are written as SMILES. Read-outs that look alike come from different tables or passages of the source.

Chain of off-target kinases (Homo sapiens, UniProt Q15759) (Q15759 whole entry): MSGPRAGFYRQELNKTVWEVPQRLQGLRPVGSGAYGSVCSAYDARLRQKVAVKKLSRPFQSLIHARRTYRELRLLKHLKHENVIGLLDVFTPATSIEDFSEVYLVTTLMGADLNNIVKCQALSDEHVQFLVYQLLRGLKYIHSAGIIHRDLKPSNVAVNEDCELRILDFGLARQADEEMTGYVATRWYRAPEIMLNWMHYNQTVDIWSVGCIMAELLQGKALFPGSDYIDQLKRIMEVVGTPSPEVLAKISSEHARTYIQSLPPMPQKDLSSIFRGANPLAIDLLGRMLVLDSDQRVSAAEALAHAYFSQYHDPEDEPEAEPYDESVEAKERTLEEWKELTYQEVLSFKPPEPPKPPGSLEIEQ
Chain of off-target kinases (Homo sapiens, UniProt P07333) (P07333 20-972): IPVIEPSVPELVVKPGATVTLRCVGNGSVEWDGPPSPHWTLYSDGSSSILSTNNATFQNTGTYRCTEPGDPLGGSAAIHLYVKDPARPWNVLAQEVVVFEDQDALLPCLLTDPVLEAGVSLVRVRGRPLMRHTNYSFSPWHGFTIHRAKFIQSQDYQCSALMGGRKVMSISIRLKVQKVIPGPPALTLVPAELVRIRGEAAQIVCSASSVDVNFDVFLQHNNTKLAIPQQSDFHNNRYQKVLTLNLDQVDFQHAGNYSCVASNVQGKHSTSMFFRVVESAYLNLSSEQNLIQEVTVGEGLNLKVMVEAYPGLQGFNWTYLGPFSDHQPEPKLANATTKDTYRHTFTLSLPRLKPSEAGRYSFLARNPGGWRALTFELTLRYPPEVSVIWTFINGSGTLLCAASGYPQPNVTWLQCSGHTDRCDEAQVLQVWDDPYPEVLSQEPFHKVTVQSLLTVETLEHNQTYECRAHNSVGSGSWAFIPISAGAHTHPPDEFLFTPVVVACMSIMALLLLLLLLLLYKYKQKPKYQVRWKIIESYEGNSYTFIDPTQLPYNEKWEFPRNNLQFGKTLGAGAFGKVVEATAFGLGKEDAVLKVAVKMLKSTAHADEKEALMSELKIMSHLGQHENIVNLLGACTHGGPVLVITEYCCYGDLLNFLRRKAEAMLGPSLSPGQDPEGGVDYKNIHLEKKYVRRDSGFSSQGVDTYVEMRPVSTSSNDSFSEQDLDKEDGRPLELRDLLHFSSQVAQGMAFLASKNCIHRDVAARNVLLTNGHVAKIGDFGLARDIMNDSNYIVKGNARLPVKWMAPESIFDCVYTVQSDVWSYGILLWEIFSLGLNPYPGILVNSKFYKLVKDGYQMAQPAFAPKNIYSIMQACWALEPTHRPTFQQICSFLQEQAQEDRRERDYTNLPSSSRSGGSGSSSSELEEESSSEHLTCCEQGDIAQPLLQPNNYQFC

For `N#Cc1cc(-c2ncnc(Nc3ccc(N4CCN(C5COC5)CC4)cc3)n2)ccc1OC1CCOCC1` [Compound 1, 5-(4-((4-(4-(oxetan-3-yl)piperazin-1-yl)phenyl)amino)-1,3,5-triazin-2-yl)-2-((tetrahydro-2H-pyran-4-yl)oxy)benzonitrile], the inhibition was determined as 91% at off-target kinases [1] (read-out: % Inhibition 1); 96% on off-target kinases [1] (read-out: % Inhibition 2); 93% on off-target kinases [1] (read-out: % Inhibition Avg); 40% on off-target kinases [2] (read-out: % Inhibition 1); 39% on off-target kinases [2] (read-out: % Inhibition 2); 40% at off-target kinases [2] (read-out: % Inhibition Avg). Further, the inhibition on off-target kinases [3] (read-out: % Inhibition 1) is 12%; at off-target kinases [3] (read-out: % Inhibition 2), 13%; at off-target kinases [3] (read-out: % Inhibition Avg), 12%; on off-target kinases [4] (read-out: % Inhibition 1) it was 3%; on off-target kinases [4] (read-out: % Inhibition 2), 6%; on off-target kinases [4] (read-out: % Inhibition Avg), 5%. Also, the inhibition came to 6% at off-target kinases [5] (read-out: % Inhibition 1); 4% at off-target kinases [5] (read-out: % Inhibition 2); 5% on off-target kinases [5] (read-out: % Inhibition Avg); 99% at off-target kinases [6] (read-out: % Inhibition 1); 95% at off-target kinases [6] (read-out: % Inhibition 2); 97% at off-target kinases [6] (read-out: % Inhibition Avg). The inhibition on off-target kinases [7] (read-out: % Inhibition 1) was found to be 5%; on off-target kinases [7] (read-out: % Inhibition 2), 8%; on off-target kinases [7] (read-out: % Inhibition Avg) it was 6%.
